Test results: publication PMC5584945, “Evaluation of robenidine analog NCL195 as a novel broad-spectrum antibacterial agent” (PLoS ONE, 2017)

Key:
[1] = system: vancomycin-resistant enterococci (VRE); assay: MIC, broth micro-dilution (CLSI); type: cell-based, enterococci (porcine isolates); conditions: for MIC50 / MIC90 / MIC: Enterococcus, VRE
[2] = system: S. aureus Xen29; assay: Minimum bactericidal concentration (MBC); type: cell-based; conditions: Staphylococcus aureus, 99.9% colony count reduction
Protocol: The tray was covered with Breathe-Easy sealing membrane (Z380059, Sigma-Aldrich) and incubated for 16 h overnight at 35°C in an EnSpire Multimode Plate Reader 2300 (PerkinElmer), with data collected every 20 min and 2 sec agitation at 60 rpm between data (A600 nm) acquisitions. The experiment was repeated using the luminescent D39LUX strain on a Cytation 5 Cell Imaging Multi-Mode Reader (BioTek) using IsoplateTM-96 F tray PerkinElmer, 6005020). Kill kinetic assays on S. aureus Xen29 was carried out essentially as described for MIC determination on Cytation 5 Cell Imaging Multi-Mode Reader.
In order to determine the MBC of each compound against S. pneumoniae D39 or S. aureus Xen29, 10 μl aliquots from each duplicate well from the MIC assays (starting from the MIC for each compound) was inoculated onto a HBA plate and incubated at 37°C (+ 5% CO2 for S. pneumoniae D39). Plates were examined at 24 and 48 h and the MBC was recorded as the lowest concentration of each test compound at which a 99.9% colony count reduction was observed on the plate.

[3] = system: S. pneumoniae D39; assay: Membrane potential, DiOC2(3) fluorescence; type: cell-based, Streptococcus pneumoniae; conditions: 16 μg/ml, pre-incubated 5 min; versus untreated and ampicillin
Protocol: To further examine the mechanism underlying the perturbation of the cell membrane of S. pneumoniae or S. aureus by the NCL compounds, the membrane potential of the cells was measured by fluorescence spectrometry using (DiOC2(3), essentially as described previously. Briefly, […] cells from an overnight HBA plate were grown in Todd-Hewitt broth supplemented with 1% yeast extract (THY) at 37°C, 5% CO2 until A600 nm = 0.5. […] The cuvette was then placed in a LS 55 Fluorescence Spectrometer (PerkinElmer) set at Ex. 488 nm/Em. 620 nm, with excitation and emission slit widths at 5 nm and 7 nm, respectively). […] All assays were performed at least twice.

[4] = LogD by gradient HPLC chromatographic method; type: physicochemical; conditions: pH 7.4
[5] = system: human red blood cells; assay: Haemolysis assay; type: cell-based; conditions: 1 h, 37°C; highest concentration used 128 μg/ml
Protocol: This was performed using fresh donor human red blood cells (RBCs), essentially as described previously. Fresh RBCs were washed in PBS three times at 500 × g for 5 min, and then resuspended 1% (w/v) in PBS. […] Thereafter, 198 μL of the 1% RBC solution was added into each well, and the mixture incubated for 1 h at 37°C, with shaking at 100 rpm. Quadruplicate wells containing either 1% Triton X100, or PBS only, served as controls. After incubation, the trays were centrifuged at 1,000 × g for 3 min and 100 μl of supernatant from each well transferred into a new 96-well tray. Absorbance was measured at A450 nm on a Multiskan Ascent 354 Spectrophotometer (Labsystems) and plotted against each dilution. Haemolytic titer was determined as the reciprocal of the dilution at which 50% of erythrocytes were lysed at A450 nm. The experiment was performed twice.

[6] = system: MDBK; assay: Real-time cell viability, RealTime-Glo MT; type: cell-based, bovine; conditions: 2 or 8 μg/ml, up to 20 h post-treatment
Description: In order to ensure minimal off target mammalian cell cytotoxicity, we assayed NCL812, NCL195 and NCL219 for in vitro cytotoxicity using a panel of adherent mammalian cell lines: Caco-2 (human colorectal adenocarcinoma cell line), HEL 299 (non-cancerous human lung fibroblast cell line), Hep G2 (human hepatocellular carcinoma cell line), MDBK (normal bovine kidney cell line) and MCF7 (human mammary gland adenocarcinoma cell line). Cell lines were maintained in Dulbecco’s Modified Eagle’s Medium (DMEM; […] After 24 h incubation, media was removed, washed once with medium without antibiotics and fresh medium supplemented with 10% (vol/vol) FBS was added. […] Following exposure for 24 h, WST-1 reagent was added to each well at a final concentration of 10%. […] The IC50 value for each compound against each cell line was determined via non-linear regression (three parameters) using GraphPad Prism v6 software. The robustness of assays was confirmed with selected cell lines (Hep G2 and MDBK) seeded onto a 96–well Microwell Nunclon Delta Surface plate (Thermo Scientific Nunc; Cat No: 136101) at 5 × 10^4 cells per well.

[7] = S3 Table isolates, absence of FBS

With Cl.N=C(NN=Cc1ccc(Cl)cc1)NN=Cc1ccc(Cl)cc1 [NCL812, 2,2'-bis[(4-chlorophenyl)methylene] carbonimidic dihydrazide hydrochloride] the “Fold increase of MIC range in the presence of 10% FBS” value ([1]; 10% FBS versus no FBS) was 8-16 fold, the MIC range ([1]; 20 isolates) was 2 to 4 µg/mL and the MIC50 ([1]; S3 Table isolates, 10% FBS) was 32 µg/mL. The MIC90 ([1]; S3 Table isolates, 10% FBS) was 32 µg/mL, the MIC50 [1, 7] was 2 µg/mL and the MIC90 [1, 7] was 2 µg/mL. For the same molecule, the MIC ([1]; VRE 1 (49 FR), 10% FBS) was 32 µg/mL, the MIC ([1]; VRE 1 (49 FR), absence of FBS) was 2 µg/mL and the MIC ([1]; VRE 2 (53 FR), 10% FBS) was 32 µg/mL. The MIC ([1]; VRE 2 (53 FR), absence of FBS) was 2 µg/mL, the MIC ([1]; VRE 3 (55 FR), 10% FBS) was 32 µg/mL and the MIC ([1]; VRE 3 (55 FR), absence of FBS) was 2 µg/mL. It also gave an MIC ([1]; VRE 4 (57 FR), 10% FBS) of 32 µg/mL, an MIC ([1]; VRE 4 (57 FR), absence of FBS) of 2 µg/mL and an MIC ([1]; VRE5 (58 FR), 10% FBS) of 32 µg/mL. The MIC ([1]; VRE5 (58 FR), absence of FBS) was 4 µg/mL, the MIC ([1]; VRE 6 (59 FR), 10% FBS) was 32 µg/mL and the MIC ([1]; VRE 6 (59 FR), absence of FBS) was 2 µg/mL. The MIC ([1]; VRE 7 (270 G), 10% FBS) was 32 µg/mL, the MIC ([1]; VRE 7 (270 G), absence of FBS) was 4 µg/mL and the MIC ([1]; VRE 8 (277 G), 10% FBS) was 32 µg/mL. It also gave an MIC ([1]; VRE 8 (277 G), absence of FBS) of 2 µg/mL, an MIC ([1]; VRE 9 (61 FR), 10% FBS) of 32 µg/mL and an MIC ([1]; VRE 9 (61 FR), absence of FBS) of 2 µg/mL. The MIC ([1]; VRE 10 (62 FR), 10% FBS) was 32 µg/mL, the MIC ([1]; VRE 10 (62 FR), absence of FBS) was 2 µg/mL and the MIC ([1]; VRE 11 (284 G), 10% FBS) was 32 µg/mL. For the same molecule, the MIC ([1]; VRE 11 (284 G), absence of FBS) was 2 µg/mL, the MIC ([1]; VRE 12 (290 G), 10% FBS) was 32 µg/mL and the MIC ([1]; VRE 12 (290 G), absence of FBS) was 2 µg/mL. It also gave an MIC ([1]; VRE 13 (251 G), 10% FBS) of 32 µg/mL, an MIC ([1]; VRE 13 (251 G), absence of FBS) of 2 µg/mL and an MIC ([1]; VRE 14 (252 G), 10% FBS) of 32 µg/mL. The MIC ([1]; VRE 14 (252 G), absence of FBS) was 2 µg/mL, the MIC ([1]; VRE 15 (63 FR), 10% FBS) was 32 µg/mL and the MIC ([1]; VRE 15 (63 FR), absence of FBS) was 2 µg/mL. For the same molecule, the MIC ([1]; VRE 16 (60 FR), 10% FBS) was 32 µg/mL, the MIC ([1]; VRE 16 (60 FR), absence of FBS) was 4 µg/mL and the MIC ([1]; VRE 17 (45 FR), 10% FBS) was 32 µg/mL. It also gave an MIC ([1]; VRE 17 (45 FR), absence of FBS) of 2 µg/mL, an MIC ([1]; VRE 18 (69 W), 10% FBS) of 32 µg/mL and an MIC ([1]; VRE 18 (69 W), absence of FBS) of 2 µg/mL. The MIC ([1]; VRE 19 (70 W), 10% FBS) was 32 µg/mL, the MIC ([1]; VRE 19 (70 W), absence of FBS) was 2 µg/mL and the MIC ([1]; VRE 20 (78 W), 10% FBS) was 32 µg/mL. The MIC ([1]; VRE 20 (78 W), absence of FBS) was 2 µg/mL, the MIC range ([1]; S3 Table isolates, 10% FBS) was 32 µg/mL and the MIC range [1, 7] was 2 to 4 µg/mL. For the same molecule, the MBC [2] was 4 µg/mL, the “Effect on generated membrane potential” value [3] was “large reduction in the magnitude of the generated membrane potential” and the chromatographic logD [4] was 4.5. The “50% haemolysis titre (HC50)” value [5] was 24 µg/mL and the “Effect on cell viability (real-time)” value [6] was “affected viability at 8 μg/ml”.
